In US10869928B2, “Lyophilized preparation of cytotoxic dipeptides” (ONCOPEPTIDES AB, priority 2011, dated 2020):
Counter-ions that a name gives are not always drawn.

What was measured:
[1] = Stability of melphalan flufenamide dissolved in DMA in a glucose solution; conditions: dissolved in DMA (dimethylacetamide) in a glucose solution
[2] = Determination of dissolution rate (Example 5); type: physicochemical; conditions: Solution: 5% glucose + Polysorbate 80
Protocol: A 5% glucose solution was added to each plastic vial containing J1. The vials were shaken and filtered at different time-points. The filtrate was transferred to glass vials and the amount of dissolved J1 was determined by HPLC.

[3] = Stability in aqueous solutions; type: physicochemical

Row | SMILES | degradation [1] | Time (min) to reach steady state dissolution [2] | hydrolysis in water ([3]; water) | times more stable in aqueous solutions compared to J1 ([3]; aqueous solutions, relative to J1)
1 | CCOC(=O)[C@H](Cc1ccc(F)cc1)NC(=O)[C@@H](N)Cc1ccc(N(CCCl)CCCl)cc1 [Experiment J1, melphalanyl-L-p-fluorophenylalanine ethyl ester hydrochloride] | 7 % degradation/h | 1 to 2 min | quickly hydrolyzed | –
2 | N[C@@H](Cc1ccc(N(CCCl)CCCl)cc1)C(=O)O [Melphalan, p-[bis-(2-chloroethyl)amino]phenylalanine, reference compound] | – | – | – | 10,000 times
